This is an account of results in patent US10787447B2, “Pharmaceutical compounds” (Heptares Therapeutics Limited, priority 2018, dated 2020).

Some results are limits rather than exact numbers.

Holding throughout (format): cell-based
In assay [1] the target is T1, human muscarinic M1 receptor (Homo sapiens, UniProt P11229).
T1 sequence (P11229 1-460): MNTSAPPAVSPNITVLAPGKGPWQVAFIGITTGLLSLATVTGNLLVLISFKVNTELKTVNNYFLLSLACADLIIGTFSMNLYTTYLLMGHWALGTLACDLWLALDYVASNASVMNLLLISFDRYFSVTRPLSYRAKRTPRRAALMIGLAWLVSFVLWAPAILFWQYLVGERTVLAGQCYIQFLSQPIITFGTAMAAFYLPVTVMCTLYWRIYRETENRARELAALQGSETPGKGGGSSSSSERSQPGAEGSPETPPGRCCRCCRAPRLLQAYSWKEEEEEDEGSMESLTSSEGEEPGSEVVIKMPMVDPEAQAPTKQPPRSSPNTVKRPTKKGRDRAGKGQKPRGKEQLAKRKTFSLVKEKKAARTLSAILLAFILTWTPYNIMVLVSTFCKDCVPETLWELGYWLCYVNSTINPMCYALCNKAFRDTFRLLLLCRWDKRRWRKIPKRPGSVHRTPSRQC
As to the kind of experiment: Alphascreen Surefire phospho-ERK1/2 functional assay, M1. The conditions noted are these: for EC50: pEC50 M1, CHO cells stably expressing human M1, phospho-ERK1/2; for % Emax cf. ACh, M1: CHO cells stably expressing human M1. As for the experimental part: (§1) Functional assays were performed using the Alphascreen Surefire phospho-ERK1/2 assay (Crouch & Osmond, Comb. Chem. High Throughput Screen, 2008). ERK1/2 phosphorylation is a downstream consequence of both Gq/11 and Gi/o protein coupled receptor activation, making it highly suitable for the assessment of M1, M3 (Gq/11 coupled) and M2, M4 receptors (Gi/o coupled), rather than using different assay formats for different receptor subtypes. CHO cells stably expressing the human muscarinic M1, M2, M3 or M4 receptor were plated (25K/well) onto 96-well tissue culture plates in MEM-alpha+10% dialysed FBS. Once adhered, cells were serum-starved overnight. Agonist stimulation was performed by the addition of 5 μL agonist to the cells for 5 min (37° C.). Media was removed and 50 μL of lysis buffer added. After 15 min, a 4 μL sample was transferred to 384-well plate and 7 μL of detection mixture added.
For the vast majority of examples at least two diastereomers exist and these have been separated, unless otherwise stated, using the techniques of reversed phase HPLC, chiral HPLC or chiral SFC. Isomer assignment (Isomer 1, Isomer 2, etc.) is based on the retention time of the compound using the separation technique that was performed in the final purification step. By implication, this could be reversed phase HPLC, chiral HPLC or chiral SFC retention time, and this will vary from compound to compound.

Assay [2] has as its target T2, human muscarinic M2 receptor (Homo sapiens, UniProt P08172).
T2 sequence (P08172 1-466): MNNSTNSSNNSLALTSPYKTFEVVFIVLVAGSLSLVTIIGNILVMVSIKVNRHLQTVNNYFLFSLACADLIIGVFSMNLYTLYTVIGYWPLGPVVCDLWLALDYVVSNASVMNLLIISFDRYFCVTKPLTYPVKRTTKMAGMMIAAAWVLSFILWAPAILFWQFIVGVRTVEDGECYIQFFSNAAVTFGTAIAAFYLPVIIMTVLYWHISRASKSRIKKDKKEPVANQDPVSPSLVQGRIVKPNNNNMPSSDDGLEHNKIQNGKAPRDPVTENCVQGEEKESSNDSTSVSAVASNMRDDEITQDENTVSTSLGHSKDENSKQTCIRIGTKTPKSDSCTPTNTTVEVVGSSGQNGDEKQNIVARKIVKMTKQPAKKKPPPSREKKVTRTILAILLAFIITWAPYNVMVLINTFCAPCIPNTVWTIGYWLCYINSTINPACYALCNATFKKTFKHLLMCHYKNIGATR
As to the kind of experiment: Alphascreen Surefire phospho-ERK1/2 functional assay, M2. The conditions noted are these: for EC50: pEC50 M2, CHO cells stably expressing human M2, phospho-ERK1/2; for % Emax cf. ACh, M2: CHO cells stably expressing human M2. As for the experimental part: as §1, with “ERK1/2” for “Functional assays were performed using the Alphascreen Surefire phospho-ERK1/2 assay (Crouch & Osmond, Comb. Chem. High Throughput Screen, 2008). ERK1/2”
(§2) Isomer assignment (Isomer 1, Isomer 2, etc.) is based on the retention time of the compound using the separation technique that was performed in the final purification step. By implication, this could be reversed phase HPLC, chiral HPLC or chiral SFC retention time, and this will vary from compound to compound.

Assay [3] concerns the target T3, human muscarinic M3 receptor (Homo sapiens, UniProt P20309).
T3 construct: expressed in transfected cells
As to the kind of experiment: Alphascreen Surefire phospho-ERK1/2 functional assay, M3. The note with it: for % Emax cf. ACh, M3: CHO cells stably expressing human M3. As for the experimental part: as §1, with “ERK1/2” for “Functional assays were performed using the Alphascreen Surefire phospho-ERK1/2 assay (Crouch & Osmond, Comb. Chem. High Throughput Screen, 2008). ERK1/2”
as §2

The target in assay [4] is T4, human muscarinic M4 receptor (Homo sapiens, UniProt P08173).
T4 sequence (P08173 1-479): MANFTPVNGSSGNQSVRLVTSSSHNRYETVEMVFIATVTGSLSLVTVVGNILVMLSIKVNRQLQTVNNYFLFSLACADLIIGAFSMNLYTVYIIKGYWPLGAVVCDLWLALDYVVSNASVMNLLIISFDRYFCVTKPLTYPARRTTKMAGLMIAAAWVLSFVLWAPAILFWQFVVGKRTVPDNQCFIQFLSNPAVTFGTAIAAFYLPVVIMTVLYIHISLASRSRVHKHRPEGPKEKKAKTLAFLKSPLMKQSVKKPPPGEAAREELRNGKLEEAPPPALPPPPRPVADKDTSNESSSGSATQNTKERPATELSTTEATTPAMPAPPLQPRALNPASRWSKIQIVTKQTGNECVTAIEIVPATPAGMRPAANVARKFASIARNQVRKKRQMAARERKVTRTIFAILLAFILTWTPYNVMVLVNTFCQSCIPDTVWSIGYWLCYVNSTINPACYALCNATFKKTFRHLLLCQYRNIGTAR
As to the kind of experiment: Alphascreen Surefire phospho-ERK1/2 functional assay, M4. The note with it: for EC50: pEC50 M4, CHO cells stably expressing human M4, phospho-ERK1/2; for % Emax cf. ACh, M4: CHO cells stably expressing human M4. As for the experimental part:
as §1, with “ERK1/2” for “Functional assays were performed using the Alphascreen Surefire phospho-ERK1/2 assay (Crouch & Osmond, Comb. Chem. High Throughput Screen, 2008). ERK1/2”
as §2

Where [5] appears, read: Emax relative to ACh, listed as 1-2 Isomer 1.
The mark [6] stands for this setting: Emax relative to ACh, listed as 5-5 Isomer 2.
The mark [7] stands for this setting: Emax relative to ACh, listed as 6-4 Isomer 1.
The mark [8] stands for this setting: Emax relative to ACh, listed as 8-1 Isomer 1.
The mark [9] stands for this setting: Emax relative to ACh, listed as 8-1 Isomer 2.
The mark [10] stands for this setting: Emax relative to ACh, listed as 8-2 Isomer 1.
Setting [11] is: Emax relative to ACh, listed as 8-2 Isomer 2.

T3 sequence (P20309 whole entry): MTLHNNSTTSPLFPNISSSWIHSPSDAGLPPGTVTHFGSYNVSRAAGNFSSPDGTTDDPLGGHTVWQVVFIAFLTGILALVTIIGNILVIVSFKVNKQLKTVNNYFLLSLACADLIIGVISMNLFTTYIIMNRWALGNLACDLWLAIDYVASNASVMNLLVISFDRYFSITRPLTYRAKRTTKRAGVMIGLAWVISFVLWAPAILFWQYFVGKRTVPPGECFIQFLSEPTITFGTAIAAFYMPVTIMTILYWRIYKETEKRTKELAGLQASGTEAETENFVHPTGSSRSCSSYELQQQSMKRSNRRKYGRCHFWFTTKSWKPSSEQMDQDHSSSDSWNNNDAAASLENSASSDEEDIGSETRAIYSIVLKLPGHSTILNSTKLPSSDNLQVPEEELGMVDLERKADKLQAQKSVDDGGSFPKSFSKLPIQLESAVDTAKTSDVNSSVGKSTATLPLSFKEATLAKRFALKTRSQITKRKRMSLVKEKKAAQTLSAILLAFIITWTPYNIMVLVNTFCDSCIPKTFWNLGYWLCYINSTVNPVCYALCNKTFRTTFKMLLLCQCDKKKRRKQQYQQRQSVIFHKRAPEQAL

In the case of `CCOC(=O)N1C2COCC1CC(N1CCC(n3cccn3)CC1)C2` (single isomer, unassigned) [Example 1-1 Isomer 1, Ethyl 7-[4-(1H-pyrazol-1-yl)piperidin-1-yl]-3-oxa-9-azabicyclo[3.3.1]nonane-9-carboxylate], the maximal effect (Emax) in assay [1] (CHO, read-out: % Emax cf. ACh, M1, CHO cells stably expressing human M1, Emax relative to ACh) was 116%; in assay [2] (CHO, read-out: % Emax cf. ACh, M2, CHO cells stably expressing human M2, Emax relative to ACh), 57%; in assay [3] (CHO, read-out: % Emax cf. ACh, M3, CHO cells stably expressing human M3, Emax relative to ACh) it was 13%; in assay [4] (CHO, read-out: % Emax cf. ACh, M4, CHO cells stably expressing human M4, Emax relative to ACh), 100%. Further, the EC50 in assay [1] is 427 nM; in assay [2], 575 nM; in assay [3] (pEC50 M3, CHO cells stably expressing human M3, phospho-ERK1/2) it was > 20000 nM; in assay [4], 52.5 nM.

Consider `CCOC(=O)N1C2COCC1CC(N1CCC(n3cc(Cl)cn3)CC1)C2` (single isomer, unassigned) [Example 1-2 Isomer 1, Ethyl 7-[4-(4-chloro-1H-pyrazol-1-yl)piperidin-1-yl]-3-oxa-9-azabicyclo[3.3.1]nonane-9-carboxylate], for which, in assay [1] (setting [5]), the “% Emax cf. ACh, M1” value turned out to be 96%. The values for the EC50 in assay [1], in assay [2] and in assay [4] were 15.1 nM, 87.1 nM and 2.88 nM, respectively. Further, the “% Emax cf. ACh, M2” value in assay [2] (setting [5]) stood at 69%. The “% Emax cf. ACh, M3” value in assay [3] (Emax relative to ACh) was 2%. The “% Emax cf. ACh, M4” value in assay [4] (setting [5]) came to 78%.

As for `CCOC(=O)N1C2COCC1CC(N1CCC3(CC1)C(=O)Nc1ccccc13)C2` (single isomer, unassigned) [Example 5-5 Isomer 2, Ethyl 7-(2-oxo-1,2-dihydro-1′H-spiro[indole-3,4′-piperidin]-1′yl)-3-oxa-9-azabicyclo[3.3.1]nonane-9-carboxylate], the “% Emax cf. ACh, M1” value in assay [1] (setting [6]) turned out to be 108%. Moreover, the EC50 in assay [1] is 53.7 nM; in assay [2], 75.9 nM; in assay [4] it was 8.51 nM. Further, the “% Emax cf. ACh, M2” value in assay [2] (setting [6]) was 67%. In addition, the “% Emax cf. ACh, M4” value in assay [4] (Emax relative to ACh) came to 108%.

As for `CCOC(=O)N1C2COCC1CC(N1CCC(N(CC3(C)CCC3)C(C)=O)CC1)C2` (single isomer, unassigned) [Example 6-4 Isomer 1], in assay [1] (setting [7]), the “% Emax cf. ACh, M1” value is on record as 103%. For the same compound, the values for the concentration for a half-maximal effect (EC50) in assay [1], in assay [2] and in assay [4] were 14.5 nM, 363 nM and 42.7 nM, respectively. Besides, in assay [2] (setting [7]), the “% Emax cf. ACh, M2” value was determined as 33%. For the same compound, the “% Emax cf. ACh, M4” value in assay [4] (setting [7]) worked out at 80%.

On to `COC(=O)N1C2COCC1CC(N1CCC(N(CC3(C)CCC3)C(C)=O)CC1)C2` (single isomer, unassigned) [Example 8-1 Isomer 1, Methyl 7-(4-(N-((1-methylcyclobutyl)methyl)acetamido)piperidin-1-yl)-3-oxa-9-azabicyclo[3.3.1]nonane-9-carboxylate], for which, in assay [1] (setting [8]), the “% Emax cf. ACh, M1” value is listed as 123%. Moreover, the EC50 was 85.1 nM in assay [1] and 155 nM in assay [4]. Further, in assay [4] (setting [8]), the “% Emax cf. ACh, M4” value turned out to be 77%.

Consider `COC(=O)N1C2COCC1CC(N1CCC(N(CC3(C)CCC3)C(C)=O)CC1)C2` (single isomer, unassigned) [Example 8-1 Isomer 2, Methyl 7-(4-(N-((1-methylcyclobutyl)methyl)acetamido)piperidin-1-yl)-3-oxa-9-azabicyclo[3.3.1]nonane-9-carboxylate], for which the “% Emax cf. ACh, M1” value in assay [1] (setting [9]) came to 86%. The EC50 in assay [1] was 234 nM; in assay [4], 575 nM. Besides, the “% Emax cf. ACh, M4” value in assay [4] (setting [9]) is on record as 47%.

As to `COC(=O)N1C2COCC1CC(N1CCC(N(Cc3ccccc3)C(C)=O)CC1)C2` (single isomer, unassigned) [Example 8-2 Isomer 1, Methyl 7-(4-(N-benzylacetamido)piperidin-1-yl)-3-oxa-9-azabicyclo[3.3.1]nonane-9-carboxylate], in assay [1] (setting [10]), the “% Emax cf. ACh, M1” value came to 99%. Moreover, the EC50 in assay [1] was 79.4 nM; in assay [4], 661 nM. Further, the “% Emax cf. ACh, M4” value in assay [4] (setting [10]) was found to be 54%.

`COC(=O)N1C2COCC1CC(N1CCC(N(Cc3ccccc3)C(C)=O)CC1)C2` (single isomer, unassigned) [Example 8-2 Isomer 2, Methyl 7-(4-(N-benzylacetamido)piperidin-1-yl)-3-oxa-9-azabicyclo[3.3.1]nonane-9-carboxylate]: the “% Emax cf. ACh, M1” value in assay [1] (setting [11]) is 60%. Further, the EC50 in assay [1] is 603 nM; in assay [4], > 20000 nM. The “% Emax cf. ACh, M4” value in assay [4] (setting [11]) stood at 27%.

Turning to `CC(=O)OCC[N+](C)(C)C` [ACh], the “% Emax cf. ACh, M3” value in assay [3] (Emax relative to ACh) is reported as 115%. The “% Emax cf. ACh, M4” value in assay [4] (Emax relative to ACh) stood at 110%.
